Assay results: PubChem BioAssay AID2060907 (Molecular Pharmacology Branch, DTP, NCI, 2025)
Values joined by “and” are separate entries in the source; they are usually repeats but may differ in a detail not shown here. Equal entries are not always repeated.

System: 388556-164-R-J1-PDC complex spheroid viability
Experiment: Anticancer human tumor 388556-164-R-J1-PDC patient-derived colon adenocarcinoma cell line growth inhibition [RAS]
Conditions: for viability, T/C: stronger effect = lower value; active = viability on the fitted dose curve at most 10% of control; inactive = the rest
Text: RAS pathway inhibitors in Combinations in Complex Spheroids
A high-throughput screen of multi-cell type tumor spheroids was designed to identify active combinations of RAS pathway inhibitors and targeted small molecules. Complex spheroids include a stromal component modeled by human endothelial cells (HUVEC) and fibroblasts modeled by human mesenchymal stem cells (MSCs). The concentration ranges selected for each drug and investigational agent were based upon clinically achievable concentrations if the clinical Cmax of the agent was known.
Compounds. The drugs and investigational agents: abemaciclib (NSC768073), cobimetinib (NSC768068), divarasib (GDC6063, NSC841802), docetaxel (NSC628503), GDC-1971 (RLY-1971, NSC841576), gemcitabine (NSC613327), inavolisib (NSC800729), ipatasertib (NSC767898), KB-0742 (NSC834161), MRTX-1133 (NSC836407), osimertinib (NSC779217), RMC-4630 (NSC839698), RMC-6236 (NSC851965), RMC-6291 (NSC852671), Ro-3306 (NSC812927), sapanisertib (NSC764658), SN-38 (NSC673596), staurosporine (NSC755774), SY5609 (NSC837396), and tovorafenib (DAY101, NSC766906), were obtained from the National Cancer Institute (NCI) Developmental Therapeutics Program Chemical Repository. The FDA-approved anticancer drug set is available from the NCI Developmental Therapeutics Program. […] The stock solutions were prepared in dimethyl sulfoxide (DMSO, Sigma-Aldrich, St. Louis, MO, cat. D2650) at 800-fold the tested concentration and stored at -70 degrees C prior to their use. All drugs and investigational agents were tested over a range starting from a high concentration at or near the clinical Cmax and decreasing in half-log increments. If the clinical Cmax for an agent had not been determined, the highest concentration tested was 10 microM.
Cell Culture. All cells were maintained in an incubator at 37 degrees C and 5% CO2 with 95% humidity. The PDC lines were cultured according to standard operating procedures established by the NCI PDMR. All PDCs were thawed and cultured in Matrigel-coated flasks prepared with a working solution of 1X Ham's F-12 nutrient mix, without supplementation (Invitrogen, Waltham, MA, cat. 11765054), 100 U/mL penicillin-streptomycin (Invitrogen, cat. 15140122), and 2.5% Matrigel (Corning Inc., Corning, NY, cat. 354248) for the first three passages. The 362531-283-R-J2-PDC and 782815-120-R-J1-PDC lines were cultured in 6C/Colon 1B media, which includes advanced DMEM/F-12 (Thermo Fisher Scientific, cat. 12634028), 10 mM HEPES (Thermo Fisher Scientific, cat. 15630080), 1X GlutaMAX supplement (Thermo Fisher Scientific, cat. 35050061), 0.1 mg/mL primocin (InvivoGen, San Diego, CA, cat. ant-pm-2), 10% defined fetal bovine serum, heat inactivated (HyClone Laboratories Inc., Logan, UT, cat. SH30070.03HI), 50% L-WRN conditioned media (ATCC, cat. CRL-3276), 1.25 mM N-Acetyl-L-cysteine (Sigma-Aldrich, cat. A9165), 10 mM nicotinamide (Sigma-Aldrich, cat. N0636), 1X B-27 supplement (Thermo Fisher Scientific, cat. 17504044), 1X N-2 supplement (Thermo Fisher Scientific, cat. 17502048), 50 ng/mL human EGF (Thermo Fisher Scientific, cat. PHG0311), and 10 microM Y-27632 dihydrochloride (Tocris Bioscience, cat. 1254). The K12877-001-R-J1-PDC line was cultured in 6I media, which includes all 6C/Colon 1B media plus 10 ng/mL human FGF-10 (PeproTech, cat. 100-26), 1 ng/mL human FGF-2 (PeproTech, cat. 100-18B), 1 µM prostaglandin E2 (Tocris Bioscience, cat. 2296), […] hydrocortisone (Sigma-Aldrich, cat. H4001), and […] bovine insulin (Sigma-Aldrich, cat. I6634). The K86415-001-R-J1-PDC line was cultured in 6D media, which includes all 6C/Colon 1B media components minus the L-WRN conditioned media. The 485176-168-R4-J1-PDC was cultured in PANC media, which includes all 6C/Colon 1B media plus 100 ng/mL human FGF-10 (PeproTech, cat. 100-26), 500 nM SB-431542 (Selleckchem, cat. S1067), and 10 nM gastrin (Tocris Bioscience, cat. 3006). […]
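Note: spheroids exposed to compound for 7 days before readout.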
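Throughout, for viability, T/C: 100% = DMSO vehicle control luminescence.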

CCN1CCN(Cc2ccc(Nc3ncc(F)c(-c4cc(F)c5nc(C)n(C(C)C)c5c4)n3)nc2)CC1 + C#Cc1c(F)ccc2cc(O)cc(-c3ncc4c(N5CC6CCC(C5)N6)nc(OCC56CCCN5CC(F)C6)nc4c3F)c12
> 1000 nM: IC50 (curve of first compound, second compound 0.0316 µM) | IC50 (curve of first compound, second compound 0.1 µM) | IC50 (curve of first compound, second compound 0.316 µM) | IC50 (curve of first compound, second compound 1 µM) | IC50 (curve of first compound, second compound 3.16 µM)
208 nM: IC50 (curve of first compound, second compound 10 µM)
inactive: viability, T/C (second compound 0.0316 µM, first compound 0.00316 µM) 106% | viability, T/C (second compound 0.0316 µM, first compound 0.01 µM) 106% | viability, T/C (second compound 0.0316 µM, first compound 0.0316 µM) 106% | viability, T/C (second compound 0.0316 µM, first compound 0.1 µM) 103% | viability, T/C (second compound 0.0316 µM, first compound 0.316 µM) 92.3% | viability, T/C (second compound 0.0316 µM, first compound 1 µM) 103% | viability, T/C (second compound 0.1 µM, first compound 0.00316 µM) 110% | viability, T/C (second compound 0.1 µM, first compound 0.01 µM) 100% | viability, T/C (second compound 0.1 µM, first compound 0.0316 µM) 94.8% | viability, T/C (second compound 0.1 µM, first compound 0.1 µM) 89.2% | viability, T/C (second compound 0.1 µM, first compound 0.316 µM) 91.6% | viability, T/C (second compound 0.1 µM, first compound 1 µM) 99.5% | viability, T/C (second compound 0.316 µM, first compound 0.00316 µM) 100% | viability, T/C (second compound 0.316 µM, first compound 0.01 µM) 99.2% | viability, T/C (second compound 0.316 µM, first compound 0.0316 µM) 81.1% | viability, T/C (second compound 0.316 µM, first compound 0.1 µM) 88% | viability, T/C (second compound 0.316 µM, first compound 0.316 µM) 93.3% | viability, T/C (second compound 0.316 µM, first compound 1 µM) 77.4% | viability, T/C (second compound 1 µM, first compound 0.00316 µM) 92.5% | viability, T/C (second compound 1 µM, first compound 0.01 µM) 96.3% | viability, T/C (second compound 1 µM, first compound 0.0316 µM) 73.2% | viability, T/C (second compound 1 µM, first compound 0.1 µM) 82.5% | viability, T/C (second compound 1 µM, first compound 0.316 µM) 85.6% | viability, T/C (second compound 1 µM, first compound 1 µM) 61.6% | viability, T/C (second compound 3.16 µM, first compound 0.00316 µM) 78.3% | viability, T/C (second compound 3.16 µM, first compound 0.01 µM) 73.9% | viability, T/C (second compound 3.16 µM, first compound 0.0316 µM) 76.3% | viability, T/C (second compound 3.16 µM, first compound 0.1 µM) 74.3% | viability, T/C (second compound 3.16 µM, first compound 0.316 µM) 71% | viability, T/C (second compound 3.16 µM, first compound 1 µM) 54.9% | viability, T/C (second compound 10 µM, first compound 0.00316 µM) 76.8% | viability, T/C (second compound 10 µM, first compound 0.01 µM) 67.8% | viability, T/C (second compound 10 µM, first compound 0.0316 µM) 72.7% | viability, T/C (second compound 10 µM, first compound 0.1 µM) 57.7% | viability, T/C (second compound 10 µM, first compound 0.316 µM) 45.5% | viability, T/C (second compound 10 µM, first compound 1 µM) 37.4%

CCN1CCN(Cc2ccc(Nc3ncc(F)c(-c4cc(F)c5nc(C)n(C(C)C)c5c4)n3)nc2)CC1
inactive: viability, T/C (compound 0.00316 µM) 99% and 107% and 91.4% | viability, T/C (compound 0.01 µM) 103% and 96.9% and 102% | viability, T/C (compound 0.0316 µM) 100% and 93.8% and 103% | viability, T/C (compound 0.1 µM) 97.8% and 98.6% and 93.7% | viability, T/C (compound 0.316 µM) 83.3% and 90.2% and 96.2% | viability, T/C (compound 1 µM) 91.3% and 82.5% and 92.3%
> 1000 nM: IC50 (curve of compound)

C[C@@H](NC(=O)c1ncnc(N)c1Cl)c1ncc(C(=O)Nc2cc(C(F)(F)F)c(Cl)cn2)s1
> 10000 nM: IC50 (curve of compound)
inactive: viability, T/C (compound 0.0316 µM) 106% [middle of 4 runs] | viability, T/C (compound 0.1 µM) 112% [middle of 4 runs] | viability, T/C (compound 0.316 µM) 121% [middle of 4 runs] | viability, T/C (compound 1 µM) 118% and 115% (2×) and 132% | viability, T/C (compound 3.16 µM) 116% [middle of 4 runs] | viability, T/C (compound 10 µM) 97.4% [middle of 4 runs]

CC1(C)CCC(Nc2ncc(C(F)(F)F)c(-c3c[nH]c4c(P(C)(C)=O)c(C#N)ccc34)n2)CN1 (stereo not drawn)
> 300 nM: IC50 (curve of compound)
inactive: viability, T/C (compound 0.000949 µM) 89.6% and 97.1% and 84.3% | viability, T/C (compound 0.003 µM) 93.9% and 97.5% and 113% | viability, T/C (compound 0.00949 µM) 95.5% and 100% and 114% | viability, T/C (compound 0.03 µM) 94.3% and 100% (2×) | viability, T/C (compound 0.0949 µM) 88.2% and 94.4% and 107% | viability, T/C (compound 0.3 µM) 87% and 84.8% and 87.1%
